Experimental data taken from patent US9784747B2, “Method and kit for analyzing protein-protein interaction using nanocluster formation” (KOREA ADVANCED INSTITUTE OF SCIENCE AND TECHNOLOGY, priority 2011, dated 2017).

Test system: interaction between CaMKIIα and calmodulin
Experiment: Real-time observation of calcium-dependent nanocluster formation (CaMKIIα-CaM interaction) in cotransfected HeLa cells
Format: cell-based
Conditions: ionomycin 1 mM; 80 seconds after treatment; HeLa cells cotransfected with mCherry-CaMKII[296-315]-AD and CaM-ECFP-FT; fluorescence distributed again as time passes
Protocol: To investigate whether the system of the present disclosure can be used for real-time observation of an intermolecular interaction regulated by calcium through a calcium dependent nanocluster formation, the present inventors cotransfected HeLa cells with the mCherry-CaMKII[296-315]-AD construct constructed in example 1-18 and the CaM-ECFP-FT construct constructed in example 1-19 through the method described above. Thereafter, the cells were treated with 1 mM of ionomycin as ionophore which facilitates calcium ion penetration.
Then, fluorescence was distributed again as time passes.

Compound: C[C@H](CCC(=O)O)C[C@H](C)C[C@H](C)C(=O)/C=C(\O)[C@H](C)C[C@H](C)C/C=C/[C@@H](C)[C@@H](O)[C@@H](C)[C@@H](O)C[C@@H]1CC[C@@](C)([C@H]2CC[C@@](C)([C@@H](C)O)O2)O1 [ionomycin]
- distribution and intensity of fluorescence (nanocluster formation): a strong fluorescence dot appeared in cytoplasm due to a nanocluster formation
